Results on 47 compounds are retold here after paper PMC6835155, “Lessons from LIMK1 enzymology and their impact on inhibitor design” (Biochemical Journal, 2019).

For experiment [1], the target named is T1, LIMK2KD (Homo sapiens, UniProt P53671).
T1 construct: The cDNA coding for LIMK2 residues 330 to 632 was PCR amplified; His6 (N, cleaved yes); made in house; host or cells: baculovirus; Sf9 for virus, TriEx insect cells for expression
Put plainly: Differential (dynamic) scanning fluorimetry (DSF) assay, LIMK2KD. It counts as binding.

Experiment [2] deals with T2, LIMK1KD (Homo sapiens, UniProt P53667).
T2 construct: His6 (N, cleaved yes); made in house; host or cells: baculovirus; Sf9 for virus, TriEx insect cells for expression
T2 sequence (P53667 330-637): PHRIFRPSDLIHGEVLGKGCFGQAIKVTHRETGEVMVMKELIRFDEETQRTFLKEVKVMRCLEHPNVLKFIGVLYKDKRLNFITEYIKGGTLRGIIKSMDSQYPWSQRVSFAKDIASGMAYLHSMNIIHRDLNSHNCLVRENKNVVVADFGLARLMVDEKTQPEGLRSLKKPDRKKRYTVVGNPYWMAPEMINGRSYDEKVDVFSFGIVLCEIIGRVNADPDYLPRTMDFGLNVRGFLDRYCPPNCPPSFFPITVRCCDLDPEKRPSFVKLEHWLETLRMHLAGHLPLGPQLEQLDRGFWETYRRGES
Put plainly: Differential (dynamic) scanning fluorimetry (DSF) assay, LIMK1KD. It counts as binding. As to conditions: 2 µM LIMK1KD, compound 10 µM, single shot; for ΔTm at 10 µM: read-out: TM Shift LIMK1 (K).

[3] abbreviates: LIMK2KD, compound 10 µM, single shot, 10 µM.
The mark [4] stands for this setting: LIMK2KD, compound 10 µM, single shot, read-out: TM Shift LIMK2 (K).
Setting [5] is: LIMK2KD, compound 10 µM, single shot.

Structures can show the parent of a compound that is named as a salt. Where two headings read alike, the source gives them in different places.

T1 sequence (P53671 330-632): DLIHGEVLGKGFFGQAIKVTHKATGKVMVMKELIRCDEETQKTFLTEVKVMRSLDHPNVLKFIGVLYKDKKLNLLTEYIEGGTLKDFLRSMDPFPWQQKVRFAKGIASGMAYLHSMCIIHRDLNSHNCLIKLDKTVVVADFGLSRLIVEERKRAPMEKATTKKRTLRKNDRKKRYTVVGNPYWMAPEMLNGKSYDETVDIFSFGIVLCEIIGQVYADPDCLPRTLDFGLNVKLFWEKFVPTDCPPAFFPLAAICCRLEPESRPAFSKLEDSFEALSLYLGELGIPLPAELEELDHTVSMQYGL

On to `CS(=O)(=O)N1CCN(Cc2cc3nc(-c4cccc5[nH]ncc45)nc(N4CCOCC4)c3s2)CC1` [Pictilisib], for which, in experiment [1] (setting [3]), the “TM Shift LIMK2 (K)” value is on record as 0.1 K. Besides, in experiment [2], the “TM Shift LIMK1 (K)” value came out at 2.2 K.
Take `Cn1cc(C2=C(c3ccc(Cl)cc3Cl)C(=O)NC2=O)c2ccccc21` [SB216763]: the ΔTm at 10 µM in experiment [1] (setting [4]) amounted to 1.3 °C; in experiment [2], 0.7 °C.
`CCc1cccc(CC)c1NC(=O)N1Cc2n[nH]c(NC(=O)c3ccc(N4CCN(C)CC4)cc3)c2C1` [PHA-680632]: the ΔTm at 10 µM in experiment [1] (setting [4]) came out at 0.4 °C; in experiment [2] it was 5 °C.
`Cc1nc(Nc2ncc(C(=O)Nc3c(C)cccc3Cl)s2)cc(N2CCN(CCO)CC2)n1` [Dasatinib]: the ΔTm at 10 µM in experiment [1] (read-out: TM Shift LIMK2 (K), LIMK2KD, compound 10 µM, single shot) is 1.7 °C; in experiment [2], 7 °C.
For the compound `NCC(=O)Nc1ccc(-n2nc(C(F)(F)F)cc2-c2ccc3c(ccc4ccccc43)c2)cc1` [OSU-03012 (AR-12)], the “TM Shift LIMK2 (K)” value in experiment [1] (setting [5]) amounted to 0.8 K. Also, the “TM Shift LIMK1 (K)” value in experiment [2] was -1.2 K.
On the same counts, the results for `O=C(Cc1ccc(-c2ccc(OCCN3CCOCC3)cc2)cn1)NCc1ccccc1` [KX2-391] are -0.3 K and 1.7 K.
Take `CN(c1ncccc1CNc1nc(Nc2ccc3c(c2)CC(=O)N3)ncc1C(F)(F)F)S(C)(=O)=O` [PF-00562271]: the “TM Shift LIMK2 (K)” value in experiment [1] (setting [3]) is given as 0.3 K. Besides, the “TM Shift LIMK1 (K)” value in experiment [2] is listed as 1.1 K.
`CC(C)(C)c1cc(C=C(C#N)C#N)cc(C(C)(C)C)c1O` [Tyrphostin 9]: in experiment [1] (setting [5]), the “TM Shift LIMK2 (K)” value is recorded as 6.3 K. The “TM Shift LIMK1 (K)” value in experiment [2] is 3.5 K.
With `FC(F)c1nc2ccccc2n1-c1nc(N2CCOCC2)nc(N2CCOCC2)n1` [ZSTK474], the figures for the ΔTm at 10 µM in experiment [1] (setting [4]) and in experiment [2] were 0 °C and -1 °C, respectively.
With `CCc1cncnc1N1CCN(Cc2nc3ccc(C(F)(F)F)cc3[nH]2)CC1` [PF-4708671], the “TM Shift LIMK2 (K)” value in experiment [1] (setting [3]) was 3.5 K. In addition, the “TM Shift LIMK1 (K)” value in experiment [2] was found to be 0.4 K.
For the compound `C=CC(=O)Nc1cccc(Oc2nc(Nc3ccc(N4CCN(C)CC4)cc3OC)ncc2Cl)c1` [WZ4002], the ΔTm at 10 µM in experiment [1] (setting [4]) was found to be 1.8 °C; in experiment [2] it was 1 °C.
Take `FC(F)(F)c1ccc(/C=C/c2nc(COc3ccc(CCCCn4ccnn4)cc3)co2)cc1` [Mubritinib (TAK 165), Mubritinib]: the ΔTm at 10 µM in experiment [1] (setting [4]) was -0.4 °C; in experiment [2] it was 0.6 °C.
In the case of `CN1CCN(c2cccc(Nc3nc4c(-c5ccc(S(C)(=O)=O)cc5)cccn4n3)c2)CC1` [CEP-33779], the “TM Shift LIMK2 (K)” value in experiment [1] (setting [5]) is reported as 1.5 K. In experiment [2], the “TM Shift LIMK1 (K)” value is reported as 1.0 K.
On the same counts, the results for `C#Cc1cccc(Nc2ncnc3cc(OCCOC)c(OCCO)cc23)c1` [OSI-420] are -0.1 K and 0.1 K.
`CCn1c(=O)c(-c2cc[nH]n2)cc2c(C)nc(N)nc21` [Voxtalisib]: the “TM Shift LIMK2 (K)” value in experiment [1] (setting [3]) is recorded as 0.4 K. Besides, the “TM Shift LIMK1 (K)” value in experiment [2] came out at 0.2 K.
With `Cc1ccc(NC(=O)c2ccc(CN3CC[C@H](N(C)C)C3)c(C(F)(F)F)c2)cc1Nc1nccc(-c2cncnc2)n1` [Bafetinib], the ΔTm at 10 µM was 1.1 °C in experiment [1] (setting [4]) and 2.5 °C in experiment [2].
As for `C#Cc1cccc(Nc2ncnc3cc(OCCOC)c(OCCOC)cc23)c1` [Erlotinib HCl (OSI-744), Erlotinib HCl], the ΔTm at 10 µM came to 0.5 °C in experiment [1] (setting [4]) and 0.1 °C in experiment [2].
With `CNC(=O)Nc1ccc(-c2nc(N3CC4CCC(C3)O4)c3cnn(C4CCC5(CC4)OCCO5)c3n2)cc1` [WYE-125132 (WYE-132)], in experiment [1] (setting [5]), the “TM Shift LIMK2 (K)” value came to 0.9 K. For the same compound, in experiment [2], the “TM Shift LIMK1 (K)” value stood at 0.5 K.
`CNC(=O)c1ccccc1Nc1nc(Nc2ccc(N3CCOCC3)cc2OC)ncc1Cl` [TAE226 (NVP-TAE226)]: the “TM Shift LIMK2 (K)” value in experiment [1] (setting [5]) worked out at 3.3 K. The “TM Shift LIMK1 (K)” value in experiment [2] turned out to be 1.1 K.
On the same counts, the results for `CCn1c(N)c(C(=O)NC)c(=O)c2ccc(C#C[C@@](C)(O)COC)nc21` [SAR131675] are 2.9 K and 0.1 K.
Take `CO[C@H]1C[C@@H]2CC[C@@H](C)[C@@](O)(O2)C(=O)C(=O)N2CCCC[C@H]2C(=O)O[C@H]([C@H](C)C[C@@H]2CC[C@@H](OCCO)[C@H](OC)C2)CC(=O)[C@H](C)/C=C(\C)[C@@H](O)[C@@H](OC)C(=O)[C@H](C)C[C@H](C)/C=C/C=C/C=C/1C` [Everolimus (RAD001), Everolimus]: the ΔTm at 10 µM was -0.9 °C in experiment [1] (setting [4]) and 0.1 °C in experiment [2].
In the case of `CCn1c(=O)c(-c2cc[nH]n2)cc2c(C)nc(N)nc21` [SAR245409 (XL765)], the “TM Shift LIMK2 (K)” value in experiment [1] (setting [3]) is listed as 6.6 K. Moreover, the “TM Shift LIMK1 (K)” value in experiment [2] is 1.0 K.
For `O=C1NC(=O)[C@@H](c2cn3c4c(cccc24)CCC3)[C@@H]1c1c[nH]c2ccccc12` [Tivantinib], the ΔTm at 10 µM worked out at 0.6 °C in experiment [1] (setting [4]) and 0 °C in experiment [2].
Regarding `CN(C)c1ccc(-c2nc3ncc(Cl)c(N4CCN(CC(=O)Nc5nccs5)CC4)c3[nH]2)cc1` [CCT129202], the “TM Shift LIMK2 (K)” value in experiment [1] (setting [5]) is reported as 4.6 K. In addition, the “TM Shift LIMK1 (K)” value in experiment [2] was found to be 2.4 K.
As for `CCN1CCN(Cc2ccc(-c3cc4c(N[C@H](C)c5ccccc5)ncnc4[nH]3)cc2)CC1` [AEE788 (NVP-AEE788)], the ΔTm at 10 µM is 4.5 °C in experiment [1] (setting [4]) and 4.7 °C in experiment [2].
With `Nc1ncnc2c1c(-c1cnc3[nH]ccc3c1)nn2C1CCCC1` [PP121], the “TM Shift LIMK2 (K)” value in experiment [1] (setting [5]) is reported as 2.7 K. Further, the “TM Shift LIMK1 (K)” value in experiment [2] is reported as 3.6 K.
Regarding `CC[C@H](CO)Nc1nc(NCc2ccccc2)c2ncn(C(C)C)c2n1` [Seliciclib], the “TM Shift LIMK2 (K)” value in experiment [1] (setting [3]) is given as 0.0 K; in experiment [1] (LIMK2KD, compound 10 µM, single shot, listed as Roscovitine (Seliciclib,CYC202), 10 µM), -1.3 K. The “TM Shift LIMK1 (K)” value is listed as 0.1 K in experiment [2] and -0.4 K in experiment [2] (listed as Roscovitine (Seliciclib,CYC202)).
`CC1(C)CNc2cc(NC(=O)c3cccnc3NCc3ccncc3)ccc21` [Motesanib Diphosphate (AMG-706), Motesanib Diphosphate]: the ΔTm at 10 µM in experiment [1] (setting [4]) turned out to be 0.5 °C; in experiment [2] it was 0.6 °C.
With `Clc1ccc(C2(c3ccc(-c4cn[nH]c4)cc3)CCNCC2)cc1` [AT7867], the “TM Shift LIMK2 (K)” value in experiment [1] (setting [5]) was found to be 1.4 K. Also, the “TM Shift LIMK1 (K)” value in experiment [2] is on record as 0.9 K.
Consider `CC(C)(C)c1cc(NC(=O)Nc2ccc(-c3cn4c(n3)sc3cc(OCCN5CCOCC5)ccc34)cc2)no1` [Quizartinib (AC220), Quizartinib], for which the values for the ΔTm at 10 µM in experiment [1] (setting [4]) and in experiment [2] were 1.3 °C and -1.4 °C, respectively.
Turning to `O=c1cc(N2CCOCC2)oc2c(-c3cccc4c3sc3ccccc34)cccc12` [NU7441 (KU-57788)], in experiment [1] (setting [5]), the “TM Shift LIMK2 (K)” value was -0.9 K. In addition, the “TM Shift LIMK1 (K)” value in experiment [2] is on record as 0.5 K.
Turning to `CN1CC[C@H](c2c(O)cc(O)c3c(=O)cc(-c4ccccc4Cl)oc23)[C@H](O)C1` [Alvocidib], the ΔTm at 10 µM in experiment [1] (setting [4]) stood at 0.5 °C; in experiment [2], 1.9 °C.
Regarding `Clc1ccc(Nc2nnc(Cc3ccncc3)c3ccccc23)cc1` [Vatalanib (PTK787) 2HCl, Vatalanib], the ΔTm at 10 µM in experiment [1] (setting [4]) was -0.3 °C; in experiment [2], -0.5 °C.
In the same order, the values of `Nc1ncnc2c1c(COc1cccc(Cl)c1)nn2C1CCOCC1` [PF-4800567] are -0.8 °C and 1.3 °C.
On the same counts, the results for `COc1cc2c(N3CCN(C(=O)Nc4ccc(OC(C)C)cc4)CC3)ncnc2cc1OCCCN1CCCCC1` [Tandutinib (MLN518), Tandutinib] are 0 °C and 0.8 °C.
On to `Cc1c(CN2CCN(C(=O)[C@H](C)O)CC2)sc2c(N3CCOCC3)nc(-c3cnc(N)nc3)nc12` [GDC-0980 (RG7422)], for which the “TM Shift LIMK2 (K)” value in experiment [1] (setting [5]) turned out to be 0.6 K. Also, the “TM Shift LIMK1 (K)” value in experiment [2] is listed as 1.4 K.
For `COc1cc2nccc(Oc3ccc(NC(=O)C4(C(=O)Nc5ccc(F)cc5)CC4)cc3)c2cc1OC` [Cabozantinib (XL184, BMS-907351), Cabozantinib], the ΔTm at 10 µM in experiment [1] (setting [4]) stood at 0.6 °C; in experiment [2] it was 2.5 °C.
As for `CC(=O)c1c(C)c2cnc(Nc3ccc(N4CCNCC4)cn3)nc2n(C2CCCC2)c1=O` [Palbociclib (PD-0332991) HCl, Palbociclib], the ΔTm at 10 µM in experiment [1] (setting [4]) is 0.2 °C; in experiment [2], 0.5 °C.
In the same order, the values of `C=CC(=O)N1CCC[C@@H](n2nc(-c3ccc(Oc4ccccc4)cc3)c3c(N)ncnc32)C1` [Ibrutinib (PCI-32765), Ibrutinib] are 0.7 °C and 2.4 °C.
On the same counts, the results for `O=C(/C=C/c1ccc(O)c(O)c1)c1ccc(O)cc1O` [Butein] are 1.9 °C and -0.6 °C.
Regarding `C[C@H](NC(=O)/C(C#N)=C/c1cccc(Br)n1)c1ccccc1` [WP1066], the values for the ΔTm at 10 µM in experiment [1] (setting [4]) and in experiment [2] were 0.4 °C and -0.3 °C, respectively.
On to `CCN1CCN(Cc2ccc(Nc3ncc(F)c(-c4cc(F)c5nc(C)n(C(C)C)c5c4)n3)nc2)CC1` [LY2835219], for which the ΔTm at 10 µM in experiment [1] (setting [4]) turned out to be 0.3 °C; in experiment [2], 0.9 °C.
In the same order, the values of `CCCCOc1c(C(=O)c2c(F)cc(C)cc2F)c[nH]c2nncc1-2` [BMS-265246] are 1.4 °C and 0.7 °C.
In the same order, the values of `CCn1c(C(=O)N(C2CC2)C2CC2)cc2c3c(ncn3C)c(Nc3cc(C)n(C)n3)nc21` [BMS-911543] are 0.3 °C and 1.8 °C.
On the same counts, the results for `C#Cc1cccc(Nc2ncnc3cc(OC)c(OCCCCCCC(=O)NO)cc23)c1` [CUDC-101] are 1.6 °C and 0.8 °C.
Turning to `CS(=O)(=O)c1cccc(CNc2nc(Nc3ccc4c(c3)CCC(=O)N4)ncc2C(F)(F)F)c1` [PF-573228], the “TM Shift LIMK2 (K)” value in experiment [1] (setting [5]) was 0.7 K. In addition, the “TM Shift LIMK1 (K)” value in experiment [2] worked out at 1.0 K.
Take `CN(C)C[C@@H]1CCn2cc(c3ccccc32)C2=C(C(=O)NC2=O)c2cn(c3ccccc23)CCO1` [Ruboxistaurin]: the ΔTm at 10 µM amounted to 0.4 °C in experiment [1] (setting [4]) and 1 °C in experiment [2].
